“Also recorded” adds a separate entry of the source. Like-named read-outs stand apart in the source and are kept apart here. Bridge positions count the residues as written; N and C are the ends. Peptide text beside a SMILES is read from it.

The values below come from US20090299044A1 (priority 2006, published 2009).

The target of one series is T1, human Kv1.3 (CHO) (Homo sapiens, UniProt P22001).
T1 construct: expressed in transfected cells; host or cells: CHO
Nature of the series: cell-based.

A further series addresses T2, human Kv1.1 (HEK293) (Homo sapiens, UniProt Q09470).
T2 construct: expressed in transfected cells; host or cells: HEK293
The series is described as follows: cell-based.

Series [1] has as its target T3, human Kv1.3 channel (Homo sapiens, UniProt P22001). The series is described as follows: cell-based. It is filed as cell-based.
In series [2] the target is T4, human Kv1.1 (Homo sapiens, UniProt Q09470). The series is described as follows: cell-based. Also on record: expressed in transfected cells; host or cells: HEK293.
The subject of series [3] is IL-2 production, human whole blood. It is filed as cell-based.
The test system of series [4] is IFN-g production, human whole blood. It is filed as cell-based.
For series [5] the following is noted: rat, in vivo, iv, 1 mg/kg.
The conditions of series [6]: cited from earlier work.
The target in series [7] is T4, human Kv1.1. The series is described as follows: cell-based or functional assay.
Series [8] deals with IL-2R on CD4+ T cells, human whole blood. It is filed as cell-based.
Series [9] has as its system CD40L on CD4+ T cells, human whole blood. It is filed as cell-based.
Series [10] has as its target T3, human Kv1.3 channel. Nature of the series: cell-based or functional assay.
Series [11] deals with human Kv1.3 voltage-gated potassium channel (human) (UniProt P22001). Nature of the series: cell-based or functional assay.
In series [12] the target is human Kv1.1 voltage-gated potassium channel (human) (UniProt Q09470). Nature of the series: cell-based or functional assay.
human Kv1.1 voltage-gated potassium channel (human), sequence (Q09470 whole entry): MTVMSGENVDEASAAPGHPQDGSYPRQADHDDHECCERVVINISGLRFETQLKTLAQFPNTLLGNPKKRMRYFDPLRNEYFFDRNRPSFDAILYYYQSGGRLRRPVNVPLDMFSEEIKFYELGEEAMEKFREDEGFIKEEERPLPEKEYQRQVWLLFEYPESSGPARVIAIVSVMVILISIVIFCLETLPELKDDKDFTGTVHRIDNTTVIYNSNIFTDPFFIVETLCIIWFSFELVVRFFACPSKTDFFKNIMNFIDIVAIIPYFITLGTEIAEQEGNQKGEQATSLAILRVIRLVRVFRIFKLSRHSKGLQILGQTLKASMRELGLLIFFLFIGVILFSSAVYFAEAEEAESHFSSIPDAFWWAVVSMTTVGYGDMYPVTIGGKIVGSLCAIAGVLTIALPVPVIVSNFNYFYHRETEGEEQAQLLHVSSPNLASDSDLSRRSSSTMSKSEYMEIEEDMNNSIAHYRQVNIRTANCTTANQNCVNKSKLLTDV

T4 sequence (Q09470 whole entry): as above
T3 sequence (P22001 whole entry): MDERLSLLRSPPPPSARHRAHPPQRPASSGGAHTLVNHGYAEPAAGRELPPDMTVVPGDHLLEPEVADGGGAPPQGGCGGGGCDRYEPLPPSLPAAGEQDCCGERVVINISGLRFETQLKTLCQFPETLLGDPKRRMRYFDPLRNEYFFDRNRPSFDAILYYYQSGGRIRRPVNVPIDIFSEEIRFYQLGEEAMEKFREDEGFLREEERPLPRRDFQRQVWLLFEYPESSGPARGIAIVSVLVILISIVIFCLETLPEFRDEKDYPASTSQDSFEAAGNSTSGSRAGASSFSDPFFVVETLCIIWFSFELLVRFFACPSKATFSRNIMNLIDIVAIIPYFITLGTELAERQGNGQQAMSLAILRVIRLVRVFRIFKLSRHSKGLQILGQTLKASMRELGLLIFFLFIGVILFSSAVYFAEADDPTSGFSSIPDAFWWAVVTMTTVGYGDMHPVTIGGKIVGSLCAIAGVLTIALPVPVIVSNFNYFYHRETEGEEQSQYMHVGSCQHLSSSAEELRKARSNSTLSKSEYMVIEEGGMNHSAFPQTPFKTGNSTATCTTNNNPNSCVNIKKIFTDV
human Kv1.3 voltage-gated potassium channel (human), sequence (P22001 whole entry): as above
T2 sequence (Q09470 whole entry): as the sequence (Q09470 whole entry) above
T1 sequence (P22001 whole entry): as the sequence (P22001 whole entry) above

Regarding `CC[C@H](C)[C@@H]1NC(=O)[C@H](CCCCN)NC(=O)[C@@H](NC(=O)[C@H](CCCCN)NC(=O)[C@@H](NC(=O)[C@H](CC(N)=O)NC(=O)[C@@H](NC(=O)[C@@H](NC(=O)[C@@H](NC(=O)CN)C(C)C)[C@@H](C)CC)[C@@H](C)CC)C(C)C)CSSC[C@@H]2NC(=O)[C@H](C)NC(=O)CNC(=O)[C@H](Cc3ccccc3)NC(=O)[C@H](CCCNC(=N)N)NC(=O)[C@H](CCSC)NC(=O)CNC(=O)[C@H](C)NC(=O)[C@H](CCCCN)NC(=O)[C@H](CCCCN)NC(=O)[C@@H]3CSSC[C@@H](C(=O)N[C@H](C(=O)N4CCC[C@H]4C(=O)N[C@@H](CCCCN)C(=O)O)[C@@H](C)O)NC(=O)[C@H](Cc4c[nH]cn4)NC(=O)[C@H](CSSC[C@H](NC(=O)[C@H](CCC(N)=O)NC(=O)[C@H](CCCNC(=N)N)NC(=O)[C@H](CO)NC1=O)C(=O)N[C@@H](CC(C)C)C(=O)N[C@@H](CCC(=O)O)C(=O)N1CCC[C@H]1C(=O)N3)NC(=O)[C@H](CCCCN)NC(=O)CNC(=O)[C@H](CC(N)=O)NC(=O)[C@H](CCSC)NC2=O` [K27A] (H-GVIINVKCKISRQCLEPCKKAGMRFGACMNGKCHCTPK-OH; disulfide 8-28, 14-33, 18-35), the IC50 at human Kv1.3 (CHO) is 0.232 nM; against human Kv1.1 (HEK293), over 3 nM; against human Kv1.3 channel [1], 0.289 nM; against human Kv1.1 [2], 10.1 nM.
Regarding `CC[C@H](C)[C@@H]1NC(=O)[C@H](CCCCN)NC(=O)[C@@H](NC(=O)[C@H](CCCCN)NC(=O)[C@@H](NC(=O)[C@H](CC(N)=O)NC(=O)[C@@H](NC(=O)[C@@H](NC(=O)[C@@H](NC(=O)CN)C(C)C)[C@@H](C)CC)[C@@H](C)CC)C(C)C)CSSC[C@@H]2NC(=O)[C@H](CCCCN)NC(=O)CNC(=O)[C@H](Cc3ccccc3)NC(=O)[C@H](CCCNC(=N)N)NC(=O)[C@H](CCSC)NC(=O)CNC(=O)[C@H](C)NC(=O)[C@H](CCCCN)NC(=O)[C@H](CCCCN)NC(=O)[C@@H]3CSSC[C@@H](C(=O)N[C@H](C(=O)N4CCC[C@H]4C(=O)N[C@@H](CCCCN)C(=O)O)[C@@H](C)O)NC(=O)[C@H](Cc4c[nH]cn4)NC(=O)[C@H](CSSC[C@H](NC(=O)[C@H](CCC(N)=O)NC(=O)[C@H](CCCNC(=N)N)NC(=O)[C@H](CCC(=O)O)NC1=O)C(=O)N[C@@H](CC(C)C)C(=O)N[C@@H](CCC(=O)O)C(=O)N1CCC[C@H]1C(=O)N3)NC(=O)[C@H](CCCCN)NC(=O)CNC(=O)[C@H](CC(N)=O)NC(=O)[C@H](CCSC)NC2=O` [S11E] (H-GVIINVKCKIERQCLEPCKKAGMRFGKCMNGKCHCTPK-OH; disulfide 8-28, 14-33, 18-35), the IC50 came out at 39900 pM in series [3] (read-out: Analogue Activity (IC50, pM) WB/IL-2) and 16900 pM in series [4] (read-out: Analogue Activity (IC50, pM) WB/IFNg).
Consider `CC[C@H](C)[C@@H]1NC(=O)[C@@H](NC(=O)[C@H](CO)NC(=O)[C@@H](N)CCCNC(=N)N)CSSC[C@@H](C(=O)O)NC(=O)[C@H]([C@@H](C)O)NC(=O)CNC(=O)[C@@H]2CSSC[C@@H]3NC(=O)[C@H](CCC(N)=O)NC(=O)[C@H](Cc4ccccc4)NC(=O)[C@H](C)NC(=O)[C@H]([C@@H](C)O)NC(=O)[C@H](CSSC[C@H](NC(=O)[C@H](Cc4ccccc4)NC(=O)[C@H](CO)NC(=O)[C@H](CC(C)C)NC(=O)[C@H](CCCNC(=N)N)NC(=O)[C@H](Cc4ccc(O)cc4)NC(=O)[C@H](CCCCN)NC(=O)[C@H](CCSC)NC(=O)[C@H](CO)NC(=O)[C@H](Cc4cnc[nH]4)NC(=O)[C@H](CCCCN)NC3=O)C(=O)N[C@@H](CCCNC(=N)N)C(=O)N[C@@H](CCCCN)C(=O)N[C@@H]([C@@H](C)O)C(=O)N2)NC(=O)[C@H](CCCNC(=N)N)NC(=O)[C@H](CO)NC(=O)[C@H](CCCCN)NC(=O)[C@@H]2CCCN2C(=O)[C@H]([C@@H](C)CC)NC(=O)[C@H]([C@@H](C)O)NC(=O)[C@H](CC(=O)O)NC1=O` [ShK[1-35]], for which the “duration of significant suppression of Kv1.3 current (<70 POC) by 5% serum Test solutions” value in series [5] is at most 1 h. Also, in [6], the half-life in vivo is given as about 20 min. Besides, the “half-life of the native ShK molecule” value in [6] (in vivo) was “approximately 0.33 hour”.
The molecule Fc-L10-OSK1 (CHO-expressed) (Fc fusion) registered a hKv1.1: IC50 (whole cell patch clamp, block of K+ current) with human Kv1.1 [7] of 41.6 nM.
For the molecule “Fc-L10-ShK[2-35]: human IgG1 Fc fused via 10 amino acid linker to ShK[2-35], CHO-derived peptibody”, the “block of human Kv1.3 current (in words)” value in the series with human Kv1.3 channel [1] was “potently blocks”. The “thapsigargin-induced upregulation of the IL-2R on T cells in human whole blood (in words)” value in [8] is listed as “suppressing activation of the IL-2R on CD4+ T cells; also recorded: blocked”. Besides, the “thapsigargin-induced upregulation of CD40L on T cells in human whole blood (in words)” value in [9] is recorded as “blocked”. The “thapsigargin-induced IL-2 production in human whole blood (in words)” value in series [3] was “potently blocked IL-2 secretion in human whole blood; also recorded: suppressed”. In [4], the “thapsigargin-induced IFN-g production in human whole blood (in words)” value is on record as “suppressed; also recorded: blocked”.
“Fc-L25-ShK[2-35] (CHO-derived) (Fc fusion)” registered an IC50 of current block, whole cell patch clamp on HEK293/Kv1.3 cells with human Kv1.3 channel [10] of 0.15 nM.
Consider “IbTx: BKCa channel inhibitor iberiotoxin, Bachem (QFTDVDCSVSKECWSVCKDLFGVDRGKCMGKKCRCYQ; Definition of Artificial Sequence: Synthetic peptide) [reference compound]”, for which, in [8], the “thapsigargin-induced upregulation of the IL-2R on T cells in human whole blood (in words)” value is on record as “no significant activity”. Also, the “thapsigargin-induced upregulation of CD40L on T cells in human whole blood (in words)” value in series [9] is on record as “no significant activity”. In series [3], the “thapsigargin-induced IL-2 production in human whole blood (in words)” value is on record as “no significant activity”. In [4], the “thapsigargin-induced IFN-g production in human whole blood (in words)” value is “no significant activity”.
Turning to “OSK1 (native Orthochirus scrobiculosus toxin peptide)”, in [11], the Kv1.3 (IC50, pM), whole cell patch clamp ePhys turned out to be 39 pM and the Kv1.3 Selectivity (=Kv1.1/Kv.3 IC50) amounted to 5. The Kv1.1 (IC50, pM), whole cell patch clamp ePhys in [12] was found to be 202 pM.
In series [11], OSK1 analogue E16K, K20D (peptide) had a WB/IFNg (IC50, nM), human whole blood of 1.32 nM and a WB/IL-2 (IC50, nM), human whole blood of 1.58 nM.
For the molecule Synthetic OSK1 toxin peptide, the hKv1.1: IC50 (whole cell patch clamp, block of K+ current) with human Kv1.1 [7] stood at 0.16 nM. The same molecule had a hKv1.3: IC50 (whole cell patch clamp, block of K+ current) in the series with human Kv1.3 channel [10] of 0.039 nM.

B1: MGGHHHHHHGGGPSVFLFPPKPKDTLMISRTPEVTCVVVDVSHEDPEVKFNWYVDGVEVHNAKTKPREEQYNSTYRVVSVLTVLHQDWLNGKEYKCKVSNKALPAPIEKTISGGGGSGGGGSGVIINVKCKISRQCLEPCKKAGMRFGKCMNGKCHCTPK (protein)
chain: MGGHHHHHHGGGPSVFLFPPKPKDTLMISRTPEVTCVVVDVSHEDPEVKFNWYVDGVEVHNAKTKPREEQYNSTYRVVSVLTVLHQDWLNGKEYKCKVSNKALPAPIEKTISGGGGSGGGGSGVIINVKCKISRQCLEPCKKAGMRFGKCMNGKCHCTPK
B1: the “blockade of the whole blood cytokine response (IL-2 and IFNg), in words” value in series [3] was “active in blocking inflammation; also recorded: modest blockade”. Further, the figures for the IC50 in series [3] (read-out: WB/IL-2 (IC50)) and in series [4] (read-out: WB/IFNg (IC50)) were 38500 pM and 55200 pM, respectively.
